What all share (assay): TGFα-shedding assay-based GPCR screening with chimeric Gα subunit proteins
Common to all, as to format: cell-based

The target in experiment [1] is T1, 348 GPCRs (Homo sapiens, UniProt O95800).
T1 construct: expressed in transfected cells; host or cells: HEK293A
The following applies: 10µM, Favipiravir 100μM.

In experiment [2] the target is T2, 348 GPCRs (Homo sapiens, UniProt P35368).
T2 construct: expressed in transfected cells; host or cells: HEK293A
T2 sequence (P35368 1-520): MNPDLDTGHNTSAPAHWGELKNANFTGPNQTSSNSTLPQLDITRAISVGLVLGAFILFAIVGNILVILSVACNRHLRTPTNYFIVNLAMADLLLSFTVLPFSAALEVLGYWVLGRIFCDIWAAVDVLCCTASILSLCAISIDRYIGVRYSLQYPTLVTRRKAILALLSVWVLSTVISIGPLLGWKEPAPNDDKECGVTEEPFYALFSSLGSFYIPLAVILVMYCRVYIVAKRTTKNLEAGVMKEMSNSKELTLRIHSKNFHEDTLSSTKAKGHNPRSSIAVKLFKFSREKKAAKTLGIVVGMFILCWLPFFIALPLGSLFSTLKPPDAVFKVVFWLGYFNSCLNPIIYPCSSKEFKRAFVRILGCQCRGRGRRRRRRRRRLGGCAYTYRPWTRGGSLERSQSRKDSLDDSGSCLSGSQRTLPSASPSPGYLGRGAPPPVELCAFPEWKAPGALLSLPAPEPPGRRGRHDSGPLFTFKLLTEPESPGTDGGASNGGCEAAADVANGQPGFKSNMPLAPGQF

Experiment [3] deals with 348 GPCRs (Homo sapiens, UniProt P51681). Particulars: 10µM, Favipiravir 100μM.
348 GPCRs (Homo sapiens, UniProt P51681), sequence (P51681 whole entry): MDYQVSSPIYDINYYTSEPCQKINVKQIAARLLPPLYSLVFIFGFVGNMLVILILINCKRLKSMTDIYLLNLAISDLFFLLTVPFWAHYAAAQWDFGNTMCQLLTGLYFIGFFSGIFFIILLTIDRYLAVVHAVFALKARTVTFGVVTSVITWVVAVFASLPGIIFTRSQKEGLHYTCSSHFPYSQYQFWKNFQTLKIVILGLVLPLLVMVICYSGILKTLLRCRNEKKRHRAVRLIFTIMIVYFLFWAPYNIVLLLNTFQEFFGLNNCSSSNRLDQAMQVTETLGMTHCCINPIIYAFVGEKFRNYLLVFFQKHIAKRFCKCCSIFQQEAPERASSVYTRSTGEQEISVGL
Experiment [4] addresses T3, 348 GPCRs (Homo sapiens, UniProt Q15761).
T3 construct: expressed in transfected cells; host or cells: HEK293A
T3 sequence (Q15761 1-445): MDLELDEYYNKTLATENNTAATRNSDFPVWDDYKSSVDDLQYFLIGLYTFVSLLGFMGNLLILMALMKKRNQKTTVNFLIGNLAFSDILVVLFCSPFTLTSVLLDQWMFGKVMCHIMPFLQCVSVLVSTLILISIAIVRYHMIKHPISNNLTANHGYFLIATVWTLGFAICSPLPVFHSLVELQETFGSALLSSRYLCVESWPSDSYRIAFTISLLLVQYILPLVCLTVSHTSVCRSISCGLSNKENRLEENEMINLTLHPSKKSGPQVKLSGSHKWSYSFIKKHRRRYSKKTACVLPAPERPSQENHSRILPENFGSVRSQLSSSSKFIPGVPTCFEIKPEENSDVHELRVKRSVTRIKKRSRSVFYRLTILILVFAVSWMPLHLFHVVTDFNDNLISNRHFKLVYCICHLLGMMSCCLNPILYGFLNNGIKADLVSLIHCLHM
Particulars: 10µM, Favipiravir 100μM.

The target in experiment [5] is T4, 348 GPCRs (Homo sapiens, UniProt Q5T6X5).
T4 construct: expressed in transfected cells; host or cells: HEK293A
T4 sequence (Q5T6X5 19-926): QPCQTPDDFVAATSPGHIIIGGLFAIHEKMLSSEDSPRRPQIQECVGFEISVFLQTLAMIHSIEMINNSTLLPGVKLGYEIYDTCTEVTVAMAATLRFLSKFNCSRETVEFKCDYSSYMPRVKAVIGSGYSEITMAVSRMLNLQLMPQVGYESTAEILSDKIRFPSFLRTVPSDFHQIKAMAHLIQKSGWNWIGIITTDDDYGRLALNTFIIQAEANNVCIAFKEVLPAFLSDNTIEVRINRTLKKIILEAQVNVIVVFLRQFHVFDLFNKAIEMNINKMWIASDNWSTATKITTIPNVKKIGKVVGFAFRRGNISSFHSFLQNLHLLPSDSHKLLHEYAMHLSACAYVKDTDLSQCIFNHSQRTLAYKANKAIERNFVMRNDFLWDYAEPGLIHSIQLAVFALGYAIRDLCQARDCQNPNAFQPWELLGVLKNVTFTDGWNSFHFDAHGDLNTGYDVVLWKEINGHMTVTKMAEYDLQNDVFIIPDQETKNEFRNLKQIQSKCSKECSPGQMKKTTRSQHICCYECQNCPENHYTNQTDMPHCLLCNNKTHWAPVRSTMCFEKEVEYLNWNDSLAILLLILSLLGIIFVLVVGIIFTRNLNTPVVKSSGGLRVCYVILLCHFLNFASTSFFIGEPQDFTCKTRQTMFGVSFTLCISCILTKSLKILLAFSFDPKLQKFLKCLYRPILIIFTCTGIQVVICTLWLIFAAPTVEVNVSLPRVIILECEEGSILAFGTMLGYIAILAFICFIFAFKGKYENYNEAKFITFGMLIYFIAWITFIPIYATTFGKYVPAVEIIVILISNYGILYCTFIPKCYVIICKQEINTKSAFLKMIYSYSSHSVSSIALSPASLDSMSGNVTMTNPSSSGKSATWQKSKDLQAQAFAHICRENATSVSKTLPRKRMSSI
Particulars: 10µM, Favipiravir 100μM.

The target of experiment [6] is 348 GPCRs (Homo sapiens, UniProt Q8IYL9). Particulars: GPCR GPR65 (G protein-coupled receptor 65).
348 GPCRs (Homo sapiens, UniProt Q8IYL9), sequence (Q8IYL9 whole entry): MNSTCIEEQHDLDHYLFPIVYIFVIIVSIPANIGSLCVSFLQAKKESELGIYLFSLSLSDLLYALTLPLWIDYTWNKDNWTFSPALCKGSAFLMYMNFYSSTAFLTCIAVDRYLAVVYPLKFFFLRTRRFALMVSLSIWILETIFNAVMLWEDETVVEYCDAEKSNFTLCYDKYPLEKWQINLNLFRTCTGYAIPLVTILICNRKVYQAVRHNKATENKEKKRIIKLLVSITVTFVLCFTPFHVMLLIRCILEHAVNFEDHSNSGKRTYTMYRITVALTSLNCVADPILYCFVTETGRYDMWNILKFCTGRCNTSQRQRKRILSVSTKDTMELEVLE
The target of experiment [7] is T5, 348 GPCRs (Homo sapiens, UniProt Q8TDS5).
T5 construct: expressed in transfected cells; host or cells: HEK293A
T5 sequence (Q8TDS5 whole entry): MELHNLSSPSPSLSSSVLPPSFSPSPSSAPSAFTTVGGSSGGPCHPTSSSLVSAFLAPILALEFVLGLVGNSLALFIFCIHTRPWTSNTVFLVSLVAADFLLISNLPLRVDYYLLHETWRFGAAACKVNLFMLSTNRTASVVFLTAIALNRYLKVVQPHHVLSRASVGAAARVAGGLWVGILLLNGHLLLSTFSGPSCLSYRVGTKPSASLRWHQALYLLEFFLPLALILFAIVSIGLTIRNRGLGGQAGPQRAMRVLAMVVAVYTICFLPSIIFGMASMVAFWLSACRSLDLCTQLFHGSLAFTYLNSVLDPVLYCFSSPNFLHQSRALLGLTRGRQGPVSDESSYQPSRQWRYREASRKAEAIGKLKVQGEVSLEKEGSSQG
The following applies: 10µM, Favipiravir 100μM.

Experiment [8] concerns the target T6, 348 GPCRs (Homo sapiens, UniProt Q96RI9).
T6 construct: expressed in transfected cells; host or cells: HEK293A
T6 sequence (Q96RI9 1-348): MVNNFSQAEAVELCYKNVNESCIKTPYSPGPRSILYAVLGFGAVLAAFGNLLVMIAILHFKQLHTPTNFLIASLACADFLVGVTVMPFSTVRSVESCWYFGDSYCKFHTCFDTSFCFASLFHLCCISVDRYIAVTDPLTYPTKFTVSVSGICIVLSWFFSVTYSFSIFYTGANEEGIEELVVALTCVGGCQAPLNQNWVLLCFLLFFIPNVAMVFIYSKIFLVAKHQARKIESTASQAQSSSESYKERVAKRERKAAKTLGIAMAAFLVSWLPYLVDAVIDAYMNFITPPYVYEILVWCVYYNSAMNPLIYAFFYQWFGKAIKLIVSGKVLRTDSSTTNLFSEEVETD
Particulars: 10µM, Favipiravir 100μM.

[9] abbreviates: GPR75 (G protein-coupled receptor 75), read-out: % GPCR activation compared to TPA.
The mark [10] stands for this setting: CCR5, CCR5 (C-C motif chemokine receptor 5), read-out: % GPCR activation compared to TPA.
Where [11] appears, read: NPY5R (neuropeptide Y Receptor Y5), read-out: % GPCR activation compared to TPA.
[12] abbreviates: GPRC6A (G protein-coupled receptor, family C, group 6, member A), read-out: % GPCR activation compared to TPA.
Where [13] appears, read: OXER1 (oxoeicosanoid receptor 1), read-out: % GPCR activation compared to TPA.
Where [14] appears, read: TAAR9 (trace amine associated receptor 9), read-out: % GPCR activation compared to TPA.
The mark [15] stands for this setting: read-out: % GPCR activation compared to TPA, GPR75 (G protein-coupled receptor 75).
[16] abbreviates: read-out: % GPCR activation compared to TPA, GPCR α1B (adrenoceptor alpha 1B).
Setting [17] is: CCR5, read-out: % GPCR activation compared to TPA, CCR5 (C-C motif chemokine receptor 5).
Where [18] appears, read: read-out: % GPCR activation compared to TPA, NPY5R (neuropeptide Y Receptor Y5).
The mark [19] stands for this setting: read-out: % GPCR activation compared to TPA, GPRC6A (G protein-coupled receptor, family C, group 6, member A).
Where [20] appears, read: read-out: % GPCR activation compared to TPA, OXER1 (oxoeicosanoid receptor 1).
Where [21] appears, read: read-out: % GPCR activation compared to TPA, TAAR9 (trace amine associated receptor 9).
Setting [22] is: GPCR α1B (adrenoceptor alpha 1B), read-out: % GPCR activation compared to TPA.

Where two headings read alike, the source gives them in different places.

T1 sequence (O95800 whole entry): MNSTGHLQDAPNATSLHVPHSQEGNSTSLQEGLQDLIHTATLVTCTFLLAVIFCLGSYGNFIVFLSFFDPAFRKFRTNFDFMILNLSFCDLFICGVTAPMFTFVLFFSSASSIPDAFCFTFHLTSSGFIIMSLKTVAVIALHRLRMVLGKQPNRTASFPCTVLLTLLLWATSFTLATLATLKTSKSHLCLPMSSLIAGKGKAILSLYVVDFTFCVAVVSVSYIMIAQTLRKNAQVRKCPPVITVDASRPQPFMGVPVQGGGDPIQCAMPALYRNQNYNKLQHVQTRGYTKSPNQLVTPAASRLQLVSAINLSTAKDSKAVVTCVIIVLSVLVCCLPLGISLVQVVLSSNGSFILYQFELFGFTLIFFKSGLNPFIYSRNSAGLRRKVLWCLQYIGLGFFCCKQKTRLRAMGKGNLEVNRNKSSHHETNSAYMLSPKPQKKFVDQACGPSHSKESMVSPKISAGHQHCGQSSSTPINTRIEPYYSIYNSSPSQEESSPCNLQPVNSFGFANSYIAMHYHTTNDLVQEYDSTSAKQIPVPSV

For the molecule `NC(=O)c1nc(F)cnc1O` [favipiravir, 6-fluoro-3-hydroxy-2-pyrazinecarboxamide], the activation at 10 µM on 348 GPCRs [1] (setting [9]) is 6.14%; on 348 GPCRs [3] (setting [10]), 1.19%; at 348 GPCRs [5] (setting [12]) it was -1.55%; on 348 GPCRs [7] (setting [13]) it was 0.649%. The activation at 100 µM on 348 GPCRs [2] (GPCR α1B (adrenoceptor alpha 1B), 100μM, read-out: % GPCR activation compared to TPA) is -1.61%; at 348 GPCRs [4] (setting [11]), -1.82%; at 348 GPCRs [8] (setting [14]), -0.821%. For the same molecule, on 348 GPCRs [6] (100μM), the “% GPCR activation compared to TPA” value was 1.278%.
Regarding `CC(C)OC(=O)[C@H](C)N[P@](=O)(OC[C@H]1O[C@@H](n2ccc(=O)[nH]c2=O)[C@](C)(F)[C@@H]1O)Oc1ccccc1` [sofosbuvir], the activation at 10 µM is -12.7% on 348 GPCRs [1] (setting [15]); 0.342% at 348 GPCRs [2] (setting [16]); -0.363% at 348 GPCRs [3] (setting [17]); 0.803% at 348 GPCRs [5] (setting [19]); -1.86% on 348 GPCRs [7] (setting [20]). The activation at 100 µM on 348 GPCRs [4] (setting [18]) is -4.22%; at 348 GPCRs [8] (setting [21]), -1.74%. The “% GPCR activation compared to TPA” value on 348 GPCRs [6] (10µM) is given as -10.455%.
On to `CCC(CC)COC(=O)[C@H](C)N[P@](=O)(OC[C@H]1O[C@@](C#N)(c2ccc3c(N)ncnn23)[C@H](O)[C@@H]1O)Oc1ccccc1` [remdesivir], for which the activation at 10 µM was 4.18% at 348 GPCRs [1] (setting [15]); -0.0202% at 348 GPCRs [2] (setting [16]); 2.38% on 348 GPCRs [3] (setting [17]); -2.47% on 348 GPCRs [5] (setting [19]); 2.06% at 348 GPCRs [7] (setting [20]). In addition, the activation at 100 µM stood at 0.934% at 348 GPCRs [4] (setting [18]) and 0.293% at 348 GPCRs [8] (setting [21]). At 348 GPCRs [6] (10µM), the “% GPCR activation compared to TPA” value was -1.387%.
On to `N#C[C@@]1(c2ccc3c(N)ncnn23)O[C@H](CO)[C@@H](O)[C@H]1O` [GS441524], for which the activation at 10 µM was 2.27% on 348 GPCRs [1] (setting [9]); -1.17% at 348 GPCRs [2] (setting [22]); -0.436% on 348 GPCRs [3] (setting [10]); -1.11% at 348 GPCRs [5] (setting [12]); -0.233% at 348 GPCRs [7] (setting [13]). Besides, the activation at 100 µM at 348 GPCRs [4] (setting [11]) is 0.212%; at 348 GPCRs [8] (setting [14]), -2.32%. The “% GPCR activation compared to TPA” value at 348 GPCRs [6] (10µM) is -3.0793%.
Turning to `CC(C)C(=O)OC[C@H]1O[C@@H](n2ccc(NO)nc2=O)[C@H](O)[C@@H]1O` [molnupiravir], the activation at 10 µM is -9.47% at 348 GPCRs [1] (setting [9]); 0.493% at 348 GPCRs [2] (setting [22]); -2.34% on 348 GPCRs [3] (setting [10]); -1.51% on 348 GPCRs [5] (setting [12]); -0.119% at 348 GPCRs [7] (setting [13]). For the same molecule, the activation at 100 µM at 348 GPCRs [4] (setting [11]) was -5.02%; at 348 GPCRs [8] (setting [14]) it was -1.9%. In addition, the “% GPCR activation compared to TPA” value on 348 GPCRs [6] (10µM) is listed as -8.376%.

The values are drawn from PMC10175918 (Communications Biology, 2023).
